# Paper PMC12090182, “Repurposing of the RIPK1-Selective Benzo[1,4]oxazepin-4-one Scaffold for the Development of a Type III LIMK1/2 Inhibitor” (ACS Chemical Biology, 2025)
# Legend:
# Type in all cases: cell-based
# [1] = biological target: MUSK (Homo sapiens, UniProt O15146); settings: HEK-293T; 1 μM inhibitor, HEK293T cells
# How it was run: (§1)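 Steps: FuGene HD/DNA complexation 30 min; HEK293T addition; 20 h expression; Tracer K10 plus 1 μM inhibitor; substrate; luminescence at 450 nm and 610 nm. Output is per-kinase occupancy.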
# [2] = biological target: CDK14 (Homo sapiens, UniProt O94921); settings: HEK-293T; 1 μM inhibitor, HEK293T cells
# How it was run: as §1
# [3] = biological target: MYLK3 (Homo sapiens, UniProt Q32MK0); settings: HEK-293T; 1 μM inhibitor, HEK293T cells
# How it was run: as §1
# [4] = biological target: RIPK2 (Homo sapiens, UniProt O43353); settings: HEK-293T; 1 μM inhibitor, HEK293T cells
# RIPK2, sequence (O43353 whole entry): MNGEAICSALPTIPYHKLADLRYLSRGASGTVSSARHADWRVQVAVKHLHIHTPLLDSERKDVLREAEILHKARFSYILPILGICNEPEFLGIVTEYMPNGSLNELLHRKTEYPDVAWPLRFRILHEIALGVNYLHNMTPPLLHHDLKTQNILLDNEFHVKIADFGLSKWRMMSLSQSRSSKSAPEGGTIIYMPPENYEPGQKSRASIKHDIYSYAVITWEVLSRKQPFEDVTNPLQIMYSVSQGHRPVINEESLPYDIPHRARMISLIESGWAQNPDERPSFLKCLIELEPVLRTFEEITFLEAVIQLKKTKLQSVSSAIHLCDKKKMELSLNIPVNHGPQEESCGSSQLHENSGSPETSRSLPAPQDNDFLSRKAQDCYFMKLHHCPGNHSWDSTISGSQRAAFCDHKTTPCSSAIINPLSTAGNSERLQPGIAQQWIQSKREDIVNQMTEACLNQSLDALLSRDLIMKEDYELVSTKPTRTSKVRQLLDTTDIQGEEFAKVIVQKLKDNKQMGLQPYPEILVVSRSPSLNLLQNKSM
# How it was run: as §1
# [5] = biological target: NEK1 (Homo sapiens, UniProt Q96PY6); settings: HEK-293T; 1 μM inhibitor, HEK293T cells
# How it was run: as §1
# [6] = biological target: EPHA1 (Homo sapiens, UniProt P21709); settings: HEK-293T; 1 μM inhibitor, HEK293T cells
# How it was run: as §1
# [7] = biological target: PRKACB (Homo sapiens, UniProt P22694); settings: HEK-293T; 1 μM inhibitor, HEK293T cells
# How it was run: as §1
# [8] = biological target: RIOK2 (Homo sapiens, UniProt Q9BVS4); settings: HEK-293T; 1 μM inhibitor, HEK293T cells
# How it was run: as §1
# [9] = biological target: INSR (Homo sapiens, UniProt P06213); settings: HEK-293T; 1 μM inhibitor, HEK293T cells
# How it was run: as §1
# [10] = biological target: TBK1 (Homo sapiens, UniProt Q9UHD2); settings: HEK-293T; 1 μM inhibitor, HEK293T cells
# How it was run: as §1
# [11] = biological target: PTK2 (Homo sapiens, UniProt Q05397); settings: 1 μM inhibitor, HEK293T cells
# PTK2, sequence (Q05397 whole entry): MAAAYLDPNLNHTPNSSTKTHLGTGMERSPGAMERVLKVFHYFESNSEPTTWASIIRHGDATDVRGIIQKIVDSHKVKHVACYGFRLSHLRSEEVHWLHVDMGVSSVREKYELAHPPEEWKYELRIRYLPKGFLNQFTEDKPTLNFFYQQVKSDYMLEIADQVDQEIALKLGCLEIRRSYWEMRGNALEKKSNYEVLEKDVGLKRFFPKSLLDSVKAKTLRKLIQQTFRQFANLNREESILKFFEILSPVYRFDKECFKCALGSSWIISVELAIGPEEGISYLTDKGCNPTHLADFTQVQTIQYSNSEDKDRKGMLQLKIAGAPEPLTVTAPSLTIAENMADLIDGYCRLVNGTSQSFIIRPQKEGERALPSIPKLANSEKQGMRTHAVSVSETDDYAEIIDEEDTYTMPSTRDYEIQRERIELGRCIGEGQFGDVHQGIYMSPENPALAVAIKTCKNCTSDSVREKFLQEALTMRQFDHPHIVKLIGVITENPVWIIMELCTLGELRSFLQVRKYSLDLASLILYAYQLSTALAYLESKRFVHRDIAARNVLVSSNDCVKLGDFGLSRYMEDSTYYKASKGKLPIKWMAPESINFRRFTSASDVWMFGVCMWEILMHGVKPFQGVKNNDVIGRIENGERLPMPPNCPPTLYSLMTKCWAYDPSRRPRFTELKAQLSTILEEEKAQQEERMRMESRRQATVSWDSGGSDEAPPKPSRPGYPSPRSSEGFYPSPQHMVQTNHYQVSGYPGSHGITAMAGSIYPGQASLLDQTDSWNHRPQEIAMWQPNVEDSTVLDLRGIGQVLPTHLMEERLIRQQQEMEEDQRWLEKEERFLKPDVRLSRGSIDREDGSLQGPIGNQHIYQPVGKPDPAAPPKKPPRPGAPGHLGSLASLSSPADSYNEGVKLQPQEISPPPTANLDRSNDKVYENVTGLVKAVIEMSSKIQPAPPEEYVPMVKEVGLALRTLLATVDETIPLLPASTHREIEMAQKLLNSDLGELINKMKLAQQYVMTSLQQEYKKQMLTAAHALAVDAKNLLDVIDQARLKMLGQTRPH
# How it was run: as §1
# [12] = biological target: BRSK2 (Homo sapiens, UniProt Q8IWQ3); settings: HEK-293T; 1 μM inhibitor, HEK293T cells
# How it was run: as §1
# [13] = biological target: LCK (Homo sapiens, UniProt P06239); settings: HEK-293T; 1 μM inhibitor, HEK293T cells
# How it was run: as §1
# [14] = biological target: STK11 (Homo sapiens, UniProt Q15831); settings: HEK-293T; 1 μM inhibitor, HEK293T cells
# How it was run: as §1
# [15] = biological target: ERN2 (Homo sapiens, UniProt Q76MJ5); settings: HEK-293T; 1 μM inhibitor, HEK293T cells
# How it was run: as §1
# [16] = biological target: RPS6KA3 (Homo sapiens, UniProt P51812); settings: HEK-293T; 1 μM inhibitor, HEK293T cells
# How it was run: as §1
# [17] = biological target: STK35 (Homo sapiens, UniProt Q8TDR2); settings: HEK-293T; 1 μM inhibitor, HEK293T cells
# How it was run: as §1
# [18] = biological target: MAP3K11 (Homo sapiens, UniProt Q16584); settings: HEK-293T; 1 μM inhibitor, HEK293T cells
# How it was run: as §1
# [19] = biological target: AKT2 (Homo sapiens, UniProt P31751); settings: HEK-293T; 1 μM inhibitor, HEK293T cells
# How it was run: as §1
# [20] = biological target: PRKX (Homo sapiens, UniProt P51817); settings: HEK-293T; 1 μM inhibitor, HEK293T cells
# How it was run: as §1
# [21] = biological target: MAPK8 (Homo sapiens, UniProt P45983); settings: HEK-293T; 1 μM inhibitor, HEK293T cells
# How it was run: as §1
# [22] = biological target: FGFR4 (Homo sapiens, UniProt P22455); settings: HEK-293T; 1 μM inhibitor, HEK293T cells
# How it was run: as §1
# [23] = biological target: JNK3 (Homo sapiens, UniProt P53779); settings: HEK-293T; 1 μM inhibitor, HEK293T cells
# How it was run: as §1
# [24] = biological target: TNNI3K (Homo sapiens, UniProt Q59H18); settings: HEK-293T; 1 μM inhibitor, HEK293T cells
# How it was run: as §1
# [25] = biological target: LATS1 (Homo sapiens, UniProt O95835); settings: HEK-293T; 1 μM inhibitor, HEK293T cells
# How it was run: as §1
# [26] = biological target: CDK5 (Homo sapiens, UniProt Q00535); settings: HEK-293T; 1 μM inhibitor, HEK293T cells
# CDK5, sequence (Q15078 whole entry): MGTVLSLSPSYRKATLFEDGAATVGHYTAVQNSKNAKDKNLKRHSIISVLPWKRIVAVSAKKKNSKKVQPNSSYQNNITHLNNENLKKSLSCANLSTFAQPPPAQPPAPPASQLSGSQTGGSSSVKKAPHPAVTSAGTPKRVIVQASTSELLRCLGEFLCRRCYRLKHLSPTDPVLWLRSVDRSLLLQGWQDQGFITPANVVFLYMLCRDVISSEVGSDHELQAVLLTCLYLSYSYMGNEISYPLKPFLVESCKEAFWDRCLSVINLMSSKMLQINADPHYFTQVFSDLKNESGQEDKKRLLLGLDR
# CDK5, sequence (Q00535 whole entry): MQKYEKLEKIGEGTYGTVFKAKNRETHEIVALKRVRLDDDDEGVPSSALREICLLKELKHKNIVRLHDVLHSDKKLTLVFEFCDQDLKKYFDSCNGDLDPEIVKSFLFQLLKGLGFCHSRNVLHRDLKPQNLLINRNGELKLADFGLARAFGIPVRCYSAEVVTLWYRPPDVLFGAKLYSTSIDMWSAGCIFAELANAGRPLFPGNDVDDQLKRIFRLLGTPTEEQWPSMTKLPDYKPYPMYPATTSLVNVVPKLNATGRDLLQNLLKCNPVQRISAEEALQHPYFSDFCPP
# How it was run: as §1
# [27] = biological target: STK38L (Homo sapiens, UniProt Q9Y2H1); settings: HEK-293T; 1 μM inhibitor, HEK293T cells
# STK38L, sequence (Q9Y2H1 whole entry): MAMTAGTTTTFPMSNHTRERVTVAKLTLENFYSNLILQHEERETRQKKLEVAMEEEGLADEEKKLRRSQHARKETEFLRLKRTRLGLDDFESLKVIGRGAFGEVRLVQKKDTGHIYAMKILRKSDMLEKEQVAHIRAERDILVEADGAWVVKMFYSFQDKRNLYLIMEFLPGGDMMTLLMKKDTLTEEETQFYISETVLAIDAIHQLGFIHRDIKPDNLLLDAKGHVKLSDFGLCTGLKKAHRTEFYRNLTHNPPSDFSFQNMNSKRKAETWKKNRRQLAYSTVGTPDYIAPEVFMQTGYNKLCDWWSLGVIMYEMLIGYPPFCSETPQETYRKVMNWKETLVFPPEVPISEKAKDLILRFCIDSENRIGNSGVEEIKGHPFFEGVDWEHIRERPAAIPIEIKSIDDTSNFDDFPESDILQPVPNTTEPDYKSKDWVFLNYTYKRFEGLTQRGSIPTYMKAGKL
# How it was run: as §1
# [28] = biological target: SLK (Homo sapiens, UniProt Q9H2G2); settings: HEK-293T; 1 μM inhibitor, HEK293T cells
# How it was run: as §1
# [29] = biological target: CDK20 (Homo sapiens, UniProt Q8IZL9); settings: HEK-293T; 1 μM inhibitor, HEK293T cells
# How it was run: as §1
# [30] = biological target: NIM1K (Homo sapiens, UniProt Q8IY84); settings: HEK-293T; 1 μM inhibitor, HEK293T cells
# How it was run: as §1
# [31] = biological target: MAP3K9 (Homo sapiens, UniProt P80192); settings: HEK-293T; 1 μM inhibitor, HEK293T cells
# MAP3K9, sequence (P80192 whole entry): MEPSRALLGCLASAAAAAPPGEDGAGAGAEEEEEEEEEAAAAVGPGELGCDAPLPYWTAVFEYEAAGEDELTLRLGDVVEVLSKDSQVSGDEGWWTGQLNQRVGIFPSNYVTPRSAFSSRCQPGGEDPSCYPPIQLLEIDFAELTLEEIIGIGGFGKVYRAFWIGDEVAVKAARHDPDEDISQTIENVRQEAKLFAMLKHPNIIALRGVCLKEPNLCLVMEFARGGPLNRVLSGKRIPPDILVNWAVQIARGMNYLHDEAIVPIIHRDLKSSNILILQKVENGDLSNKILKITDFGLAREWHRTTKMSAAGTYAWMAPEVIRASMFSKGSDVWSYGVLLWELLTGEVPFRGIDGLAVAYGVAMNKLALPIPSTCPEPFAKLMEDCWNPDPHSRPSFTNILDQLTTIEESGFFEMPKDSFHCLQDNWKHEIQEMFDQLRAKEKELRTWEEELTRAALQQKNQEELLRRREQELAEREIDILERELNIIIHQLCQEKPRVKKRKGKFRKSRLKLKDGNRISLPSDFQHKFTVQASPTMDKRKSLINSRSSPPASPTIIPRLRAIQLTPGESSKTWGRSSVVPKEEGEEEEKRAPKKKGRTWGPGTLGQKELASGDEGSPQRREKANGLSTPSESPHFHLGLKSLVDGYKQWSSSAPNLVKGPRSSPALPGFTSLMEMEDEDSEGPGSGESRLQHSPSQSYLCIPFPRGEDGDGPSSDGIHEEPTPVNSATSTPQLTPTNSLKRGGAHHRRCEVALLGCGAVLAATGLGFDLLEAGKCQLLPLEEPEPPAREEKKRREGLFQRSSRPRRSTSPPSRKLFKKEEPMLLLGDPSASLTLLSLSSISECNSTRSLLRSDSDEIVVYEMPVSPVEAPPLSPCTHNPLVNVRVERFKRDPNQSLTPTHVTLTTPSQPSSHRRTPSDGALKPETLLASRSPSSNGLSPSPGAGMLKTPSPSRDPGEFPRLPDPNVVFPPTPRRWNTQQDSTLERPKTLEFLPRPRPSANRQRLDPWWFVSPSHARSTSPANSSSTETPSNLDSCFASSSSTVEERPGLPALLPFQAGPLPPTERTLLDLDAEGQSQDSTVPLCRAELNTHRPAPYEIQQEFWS
# How it was run: as §1
# [32] = biological target: MAP3K10 (Homo sapiens, UniProt Q02779); settings: HEK-293T; 1 μM inhibitor, HEK293T cells
# How it was run: as §1
# [33] = biological target: FLT3 (Homo sapiens, UniProt P36888); settings: HEK-293T; 1 μM inhibitor, HEK293T cells
# How it was run: as §1
# [34] = biological target: ICK (Homo sapiens, UniProt Q9UPZ9); settings: HEK-293T; 1 μM inhibitor, HEK293T cells
# How it was run: as §1
# [35] = biological target: CAMK1 (Homo sapiens, UniProt Q14012); settings: HEK-293T; 1 μM inhibitor, HEK293T cells
# How it was run: as §1
# [36] = biological target: STK16 (Homo sapiens, UniProt O75716); settings: HEK-293T; 1 μM inhibitor, HEK293T cells
# STK16, sequence (O75716 whole entry): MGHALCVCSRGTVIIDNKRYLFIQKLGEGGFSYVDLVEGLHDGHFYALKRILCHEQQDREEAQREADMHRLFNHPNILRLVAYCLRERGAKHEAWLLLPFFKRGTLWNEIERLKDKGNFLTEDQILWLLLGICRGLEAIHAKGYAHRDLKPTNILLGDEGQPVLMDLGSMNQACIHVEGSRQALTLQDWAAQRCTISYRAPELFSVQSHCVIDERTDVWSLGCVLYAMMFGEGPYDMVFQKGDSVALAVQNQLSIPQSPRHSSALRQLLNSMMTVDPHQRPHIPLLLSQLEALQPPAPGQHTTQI
# How it was run: as §1
# [37] = biological target: MAP4K5 (Homo sapiens, UniProt Q9Y4K4); settings: HEK-293T; 1 μM inhibitor, HEK293T cells
# How it was run: as §1
# MUSK, sequence (O15146 24-869): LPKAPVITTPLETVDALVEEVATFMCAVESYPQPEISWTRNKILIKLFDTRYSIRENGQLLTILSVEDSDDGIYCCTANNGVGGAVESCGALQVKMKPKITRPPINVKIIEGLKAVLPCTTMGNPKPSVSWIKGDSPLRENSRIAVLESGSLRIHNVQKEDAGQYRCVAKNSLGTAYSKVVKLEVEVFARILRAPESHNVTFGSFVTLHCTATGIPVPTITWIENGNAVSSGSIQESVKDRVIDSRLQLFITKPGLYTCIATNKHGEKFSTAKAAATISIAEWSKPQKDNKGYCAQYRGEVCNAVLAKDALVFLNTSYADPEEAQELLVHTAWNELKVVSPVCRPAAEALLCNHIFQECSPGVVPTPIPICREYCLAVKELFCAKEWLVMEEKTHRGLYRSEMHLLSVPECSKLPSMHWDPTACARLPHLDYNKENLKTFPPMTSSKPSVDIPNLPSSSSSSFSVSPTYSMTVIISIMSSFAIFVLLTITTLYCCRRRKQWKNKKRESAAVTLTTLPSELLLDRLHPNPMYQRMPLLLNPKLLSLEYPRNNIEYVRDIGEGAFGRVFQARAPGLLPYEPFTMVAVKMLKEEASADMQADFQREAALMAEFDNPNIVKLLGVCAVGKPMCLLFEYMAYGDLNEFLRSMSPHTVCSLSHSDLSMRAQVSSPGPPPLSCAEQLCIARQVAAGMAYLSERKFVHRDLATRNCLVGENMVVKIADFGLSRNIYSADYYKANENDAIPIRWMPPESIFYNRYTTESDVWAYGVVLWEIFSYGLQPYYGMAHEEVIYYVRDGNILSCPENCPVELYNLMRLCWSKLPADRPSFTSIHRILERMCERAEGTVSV
smiles,measurement,setting,value
"CN1C(=O)[C@@H](N2CCc3c(nn(Cc4ccccc4)c3C(N)=O)C2=O)COc2cc(Cl)ccc21 [Compound 10, (S)-2-benzyl-6-(8-chloro-5-methyl-4-oxo-2,3,4,5-tetrahydrobenzo[b][1,4]oxazepin-3-yl)-7-oxo-4,5,6,7-tetrahydro-2H-pyrazolo[3,4-c]pyridine-3-carboxamide]",receptor occupancy at 1 µM,[1],-11.5%
same,receptor occupancy at 1 µM,[2],4.07%
same,receptor occupancy at 1 µM,[3],3.25%
same,receptor occupancy at 1 µM,[4],-1.2%
same,receptor occupancy at 1 µM,[5],8.46%
same,receptor occupancy at 1 µM,[6],2.07%
same,receptor occupancy at 1 µM,[7],0.396%
same,receptor occupancy at 1 µM,[8],-2.88%
same,receptor occupancy at 1 µM,[9],4.94%
same,receptor occupancy at 1 µM,[10],2.77%
same,receptor occupancy at 1 µM,[11],-12.2%
same,receptor occupancy at 1 µM,[12],2.53%
same,receptor occupancy at 1 µM,[13],-0.25%
same,receptor occupancy at 1 µM,[14],-4.45%
same,receptor occupancy at 1 µM,[15],-5.4%
same,receptor occupancy at 1 µM,[16],-0.166%
same,receptor occupancy at 1 µM,[17],1.56%
same,receptor occupancy at 1 µM,[18],-27.3%
same,receptor occupancy at 1 µM,[19],-1.95%
same,receptor occupancy at 1 µM,[20],2.51%
same,receptor occupancy at 1 µM,[21],-11.5%
same,receptor occupancy at 1 µM,[22],5%
same,receptor occupancy at 1 µM,[23],3.53%
same,receptor occupancy at 1 µM,[24],-0.0649%
same,receptor occupancy at 1 µM,[25],-16%
same,receptor occupancy at 1 µM,[26],-9.43%
same,receptor occupancy at 1 µM,[27],7.45%
same,receptor occupancy at 1 µM,[28],19%
same,receptor occupancy at 1 µM,[29],0.735%
same,receptor occupancy at 1 µM,[30],5.36%
same,receptor occupancy at 1 µM,[31],8.3%
same,receptor occupancy at 1 µM,[32],3.06%
same,receptor occupancy at 1 µM,[33],-3.18%
same,receptor occupancy at 1 µM,[34],3.76%
same,receptor occupancy at 1 µM,[35],2.97%
same,receptor occupancy at 1 µM,[36],-1.63%
same,receptor occupancy at 1 µM,[37],16.7%
